These results are taken from a melting point compilation (Tetko et al.; mined from patent text by program, amines drawn as free bases though some values may be those of a salt).

Residues, ends and D or L forms follow the SMILES beside them. *: point of attachment. Cbz = O=C(OCc1ccccc1)*

In the case of `CC(=O)OCC(C)(Sc1cc2ccccc2[nH]1)c1ccccc1` (stereo not drawn), the melting point lay within 105 to 106 °C.
Under `S=C1CN=C(c2ccccc2Cl)c2cc(CCc3ccc(Cl)cc3)sc2N1` stands 201 to 203 °C.
In turn, `Cc1cccc2cc3c(=O)n(Cc4ccccn4)cc(C(=O)NCCN(C)C)c3nc12` displayed a melting point of 183 to 184 °C.
As for `CCCn1cc(Cc2ccc(C(=O)NS(=O)(=O)c3ccccc3Br)cc2OC)c2cc(CCC(C)C(=O)N(C)C)ccc21` (stereo not drawn), the melting point was in the range of 96 to 99 °C.
The compound `CN1CCC(C(=NNc2ccccc2)c2ccccc2F)CC1` returned a melting point of 131 to 134 °C.
`CS(=O)(=O)c1ccc(-c2sc(-c3ccccc3Cl)nc2-c2cccc(F)c2)cc1` yielded a melting point of 134 to 135 °C.
Under `Fc1ccc(-c2cc(-c3ccccc3)c(-c3ccccc3)s2)cc1` stands 108 to 110 °C; under `Oc1ccc(-n2ccc(Nc3ccccc3)n2)cc1`, 182 to 185 °C.
In turn, `COC(=O)c1ncccc1Br` returned a melting point of 34 to 36 °C.
The result for `C#CCOc1c(Cl)cc(Cl)cc1C(=O)O` reads 163 to 164 °C; that for `C/C(=C\c1ccc(C(=O)OC(C)C)cc1)c1ccc2c(c1)C(C)(C)CCC2(C)C`, 119 to 120 °C; that for `CC(=O)C1C(=O)CC(CCS(=O)(=O)c2ccc(C(F)(F)F)cc2)CC1=O` (stereo not drawn), 136 °C.
`Cc1nc(-n2cnn(Cc3ccc(F)cc3)c2=O)sc1C(=O)NCc1cc[nH]n1` displayed a melting point of 178 to 179 °C.
As to `NC(=S)CCCc1ccc(Br)cc1`, the melting point lay in the range of 104 to 105 °C.
The result for `CN(C)CC1CCN(c2nc(N3CCOCC3)c3ncnc(N(C)Cc4cccc5ccccc45)c3n2)CC1` reads 158 °C; that for `CC1Nc2ccc(-c3cc(F)cc(C#N)c3)cc2C(C)(C)O1` (stereo not drawn), 163 to 164 °C.
In turn, `CCC(=O)Oc1cc2c(s1)CCN(C(C(=O)C1CC1)c1ccccc1F)C2` (stereo not drawn) had a melting point of 101 to 102 °C.
Under `O=C(OCc1ccc(OCc2ccc(Cl)cc2)cc1)c1cccnc1` stands 101 to 102 °C.
`CCc1c(Oc2ncc(C(F)(F)F)cc2Cl)n[nH]c1C` returned a melting point of 74 to 75 °C.
Under `COc1ccc(C(=O)Oc2ccc(S(N)(=O)=O)cc2)cc1C12CC3CC(CC(C3)C1)C2` stands 223 to 224 °C.
Regarding `CCCC[C@H]1CC[C@H](c2ccc(-c3ccc(CCc4ccc(F)cc4)cc3)c(F)c2)CC1`, the melting point was found to be 68 °C.
The compound `COC(=O)C(c1cccc(Br)c1)c1ncnc2cc(OC)c(OC)cc12` (stereo not drawn) came in with a melting point of 167 to 168 °C.
The result for `COC1=C(OC)C(=O)C2=C(CCC(CCOc3ccc(CO)cc3)CC2)C1=O` reads 57 to 59 °C; that for `Cc1ccc(-c2c(N)ncnc2Cl)cc1`, 168 to 171 °C; that for `Oc1ccc(-c2cc3ccccc3[nH]2)c(O)c1`, 188 °C.
Take `CCCCCCN1C(=O)NC(=O)C1O` (stereo not drawn): the melting point is 96 to 97 °C.
`Cc1ccccc1Oc1cccc2c1OC(=O)C2C` (stereo not drawn) came in with a melting point of 45 to 46 °C.
In turn, `CCc1cc(-c2ccc(F)cc2)c(O)cc1OC(CC)Oc1cc(NC(=O)CCCC(=O)N2CCOCC2)ccc1CCC(=O)O` (stereo not drawn) registered a melting point of 78 to 80 °C.
Compound `COc1ccc(N2CCOCC2)c2sc(-c3nc4c([nH]3)CCN(C(C)=O)C4)nc12` returned a melting point of 155 to 157 °C.
Compound `CN(C(N)=O)[C@@H]1c2cc(C#N)ccc2OC(C)(C)[C@H]1O` (relative stereo) registered a melting point of 135 to 137 °C.
The compound `O=C(O)CCc1cn(Cc2cccc(C(=O)NCc3ccc(C(F)(F)F)cc3)c2)nc1-c1ccccc1` had a melting point of 165 to 166 °C.
Under `O=C(CBr)NC1(F)C=CC=CC1C(=O)c1ccccc1` (stereo not drawn) stands 120 to 121 °C.
The result for `CS(=O)(=O)Nc1cc(-c2nc3ccccn3c2Br)c(F)cc1F` reads 202 °C.
Compound `COC(=O)C(C)(C)CCCOc1cc(C)c(N2C(=O)c3ccccc3C2=O)cc1C` yielded a melting point of 109 to 111 °C.
The compound `O=Cc1coc2cc(OCCCN3CCC(c4noc5cc(F)ccc45)CC3)ccc2c1=O` returned a melting point of 163 to 165 °C.
Take `CCN(C)c1nc2cc(NC(=O)c3c(C(=O)N4CCC4)cnn3C)ccn2n1`: the melting point is 229 to 232 °C.
Under `COC(=O)C1CC2C3CCc4cc(O)ccc4C3CCC2(C)C1=O` (stereo not drawn) stands 215 to 217 °C; under `O=C1Nc2ccccc2N2CCN(CCCc3ccncc3)CC12` (stereo not drawn), 188 to 190 °C.
Take `CCc1n[nH]c(CC)c1CCCCCOc1ccc(OC)cc1Cl`: the melting point was 80 to 83 °C.
The result for `COc1ccc(C(O)CCN2CC=C(c3ccc(Cl)cc3)CC2)cc1` (stereo not drawn) reads 116 to 118 °C.
`CCOC(=O)/C=C1/CO[C@](C)([C@H]2CC[C@H]3[C@@H](O[Si](C)(C)C(C)(C)C)CCC[C@@]32C)C1` showed a melting point of 101 °C.
In the case of `CCN(CC)C(=O)c1ccc([N+](=O)[O-])c(C)c1`, the melting point lay within 74.5 to 76 °C.
The compound `O=C1N=NC(=O)c2c1[nH]c1cc(C(F)(F)F)ccc21` came in with a melting point of 291 to 293 °C.
The result for `COc1ccc(C=CC(=O)N2CCOCC2)cc1C(F)F` reads 119 °C.
In turn, `CCN(CC)C1=NC(NC(=O)CCCCc2ccccc2)C(=O)N(C)c2ccccc21` (stereo not drawn) had a melting point of 134 to 135 °C.
Consider `CC(=O)Nc1cc(C(=O)O)ccc1C(F)(F)F`, for which the melting point was in the range of 195 to 197 °C.
Consider `COC(=O)c1cc(O)c2cc[nH]c2c1`, for which the melting point was 160 to 162 °C.
In turn, `OC[C@H](O)[C@H](O)[C@@H](O)[C@@H](O)C=NNc1ccccc1` came in with a melting point of 198 to 199 °C.
Compound `COC(=O)C(Cc1ccc(O)cc1)NC(=O)C(CO)NC(=O)C(Cc1c[nH]c2ccccc12)NC(=O)OCc1ccccc1` (stereo not drawn) (Cbz-Trp-Ser-Tyr-OMe; configuration not given here) yielded a melting point of 149 to 152 °C.
Under `CCCCCCCCCCCCCCCCCCOC(=O)C(N)Cc1ccc(O)cc1` (stereo not drawn) stands 80 to 83 °C; under `CCOC(=O)CN(C(=O)CN1C(=O)c2ccccc2C1=O)c1ccc(Cl)c(COc2cccc3ccc(C)nc23)c1Cl`, 211 to 213 °C; under `COCc1nc(N)nc(N)c1-c1ccc(Cl)cc1Cl`, 183 to 185 °C.
Turning to `CN1C(=O)CC[C@]2(C)c3ccc(-c4ccccc4C#N)cc3CC[C@@H]12`, the melting point is 54 to 55 °C.
Compound `O=c1cc(-c2ccc(OC3CCN(C4CCC4)CC3)cc2)cn[nH]1` displayed a melting point of 296 to 298 °C.
Under `Cc1cc(F)ccc1NC(=O)OC(C)(C)C` stands 93 to 95 °C; under `NC(=NO)c1ncn2c1[C@@H]1CCN1C(=O)c1c-2ccc(F)c1Cl`, 236 to 238 °C; under `O=C(C1CCCCC1)N1CC2CC2(c2ccccc2)C1` (stereo not drawn), 81 to 82 °C.
The result for `CC(=O)c1ccc(Cc2c(Cl)cc(N)cc2Cl)cc1` reads 97 to 98 °C.
Turning to `C1=C(c2ccccc2)CC(CN2CCN(c3ccccn3)CC2)C1` (stereo not drawn), the melting point fell in the range of 100 to 101 °C.
Turning to `CC1(CCCn2cc(C=O)c3ccccc32)OCCO1`, the melting point is 52 to 55 °C.
Turning to `CCN(CC)CCN1C(=O)c2cc(N)cc3cc([N+](=O)[O-])cc(c23)C1=O`, the melting point stood at 174 °C.
Compound `O=C(O)/C(=C/c1ccc(OCc2ccccc2)cc1OCc1ccccc1)NC(=O)c1ccccc1` registered a melting point of 149 to 150 °C.
`CCCCc1nnc2ccccc2c1O` had a melting point of 180 °C.
As to `CCCC(CCC)n1c(CC)nc2c1C(=O)N(C)C(CC)N2c1ccc(Cl)cc1Cl` (stereo not drawn), the melting point fell in the range of 116 to 118 °C.
`NCCCCCC(=O)Nc1cccc(C(=O)NCCC(=O)O)c1` yielded a melting point of 221 °C.
`CCCc1nnc2c(N(CC)CC)nc3ccccc3n12` showed a melting point of 92 to 94 °C.
Turning to `O=[N+]([O-])c1ccc2c(c1)SC1=NCCCN12`, the melting point was 248 °C.
Compound `O=C(NCS(=O)(=O)c1ccccc1)c1cc(Cl)nc(Cl)c1` came in with a melting point of 209 to 210 °C.
In the case of `CC(C)(Oc1ccc(CCC(=O)c2ccc(-c3ccc(C(F)(F)F)cc3)s2)cc1)C(=O)O`, the melting point lay within 154 to 155 °C.
Take `COc1ccc(CNc2nnc(Cl)c3cc([N+](=O)[O-])ccc23)cc1Cl`: the melting point lay within 179 to 180 °C.
Under `CCCCCCCCNC(=O)Oc1ccc(Oc2ccccc2)cc1` stands 44 to 46 °C; under `O=S(CC#CCOc1ccccc1)c1ccc(Cl)cc1` (stereo not drawn), 102 to 103 °C; under `CC(COc1c(-c2ccccc2)c(=O)oc2ccccc12)CN1CCCCC1` (stereo not drawn), 86 to 87 °C.
On to `Cc1nc2n(n1)C(N)(c1ccccc1)c1cc(Cl)ccc1-2` (stereo not drawn), for which the melting point was in the range of 173 to 175 °C.
As for `CCOc1nn(-c2ccc(C(F)(F)F)cn2)cc1CCCOc1ccc(CCC(=O)O)cc1OC(C)C`, the melting point lay in the range of 93 to 94 °C.
With `Cn1nc(-c2ccc(F)cc2F)cc1C(F)(F)F`, the melting point is 51 °C.
The result for `CN(C)C=CC(=O)c1ccc(F)cc1` reads 83.5 to 84 °C; that for `CC(=O)NCCNC(=O)c1ccc(Br)s1`, 244 to 245 °C.
Compound `CCN(CCCC1CCN(CC(=O)N2c3ccccc3C(=O)Nc3cccnc32)CC1)C(=O)C(C)(C)CC` displayed a melting point of 136 to 138 °C.
As to `CCOC(=O)N1CC2CC1CN2Cc1ccccc1` (stereo not drawn), the melting point lay within 124 to 128 °C.
Consider `Cc1nc(N)c2nc(C)n(CCOCC#Cc3ccccc3)c2c1C`, for which the melting point lay in the range of 187 to 188 °C.
Turning to `CCOC(=O)C1=C(C)NC(C)=C([N+](=O)[O-])C1c1cccc(Cl)c1` (stereo not drawn), the melting point came out at 168 °C.
Under `COC1(c2cnc(OCc3ccc(/C(C)=N/O)cc3)s2)CCOCC1` stands 107 to 109 °C; under `COc1ccc(Cc2cc(C3CCN(C(=O)Nc4ccccc4)CC3)nc(N)n2)cc1`, 178 to 180 °C.
Turning to `CN(C)c1ccc(NC(=O)N(CC2CCC(CN(C(=O)Nc3ccc(N(C)C)cc3)C3C4CC5CC(C4)CC3C5)CC2)C2C3CC4CC(C3)CC2C4)cc1` (stereo not drawn), the melting point lay within 182 to 185 °C.
The result for `O=C(O)Cn1cc2c(=O)n3c(nc2n1)SCC3` reads 276 °C; that for `O=S(=O)(c1ccccc1)c1ccccn1`, 90 to 91 °C.
For the compound `COC(=O)c1c(C(=O)OC)c(-c2ccc(OC)c(OC)c2)c2sccc2c1OC`, the melting point amounted to 118 °C.
